Experimental findings from ChEMBL document CHEMBL1201862, “PubChem BioAssay data set” (2004) are described below.

Active and inactive are the calls of the source.

For one experiment, the target named is T1, Streptokinase A (Streptococcus pyogenes serotype M1, UniProt P10520).
T1 sequence (P10520 whole entry): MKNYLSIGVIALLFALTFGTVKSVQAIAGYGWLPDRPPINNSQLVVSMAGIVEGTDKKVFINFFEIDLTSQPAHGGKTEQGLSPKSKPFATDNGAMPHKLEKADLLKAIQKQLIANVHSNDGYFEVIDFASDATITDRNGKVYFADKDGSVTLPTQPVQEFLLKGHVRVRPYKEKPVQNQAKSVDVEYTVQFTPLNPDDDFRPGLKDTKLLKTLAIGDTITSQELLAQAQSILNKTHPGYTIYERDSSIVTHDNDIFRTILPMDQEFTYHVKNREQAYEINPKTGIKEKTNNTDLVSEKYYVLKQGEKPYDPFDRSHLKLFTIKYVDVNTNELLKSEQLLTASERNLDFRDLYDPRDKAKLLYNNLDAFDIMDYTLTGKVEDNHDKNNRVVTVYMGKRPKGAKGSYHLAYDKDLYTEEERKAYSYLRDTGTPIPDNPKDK
The experiment can be described thus: S. pyogenes streptokinase expression inhibitors, potency, dose response, plasminogen activation absorbance, OD405 (AID 1914).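 Also: secreted streptokinase activity via plasminogen activation per viability signal from cell pellet.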 In kind it is functional, Streptococcus pyogenes M1 GAS.

Experiment [1] has as its system Streptococcus sp. 'group A'. The experiment can be described thus: growth inhibition of control SK(-) GAS strain, dose response, counter-screen for streptokinase expression inhibitor project, luminescence, kanamycin, BacTiterGlo, confirmation (AID 1900). In kind it is functional, organism-based.
The test system of experiment [2] is Streptococcus. In words: Luminescence Microorganism-Based Dose Response Follow up to Identify Compounds Cytotoxic to Streptococcus. [Related pubchem assays: 1677 (Project Summary), 1915, 1914, 1902 (Retest at Dose), 1900 (Counter Screen), 1662 (Primary HTS)]. The class given is functional, organism-based. (Counterscreens check selectivity or assay interference.)

The test system of experiment [3] is Streptococcus. The experiment can be described thus: Group A Streptococcus viability loss, dose response, counter-screen for streptokinase expression inhibitor project, luminescence, BacTiterGlo (AID 1915).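 Also: potency for reduction of bacterial viability or growth.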 In kind it is functional, organism-based.
Experiment [4] in a line: inhibitors of intracellular T. cruzi replication, confirmation, NIH3T3 host cells, beta-gal luminescence (AID 2044).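 Also: intracellular parasites grown in NIH/3T3 mouse fibroblasts as host cells; luminescent beta-galactosidase reporter signal from transgenic T. cruzi replicating inside host cells; inhibitors lower the luminescence signal.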 The class given is functional, cell-based.
Experiment [5] is described as follows: cytotoxicity toward NIH3T3 fibroblasts, dose response, counter-screen, cell-based, ATP luminescence, mouse fibroblasts (AID 2010).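 Also: cells exposed to compound for about 90 hours before reading.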 The class given is functional.
The subject of another experiment is Salmon testes DNA. The experiment can be described thus: DNA intercalators displacing acridine orange, dose response, artefact control for KSHV LANA DNA-binding inhibitor project, biochemical, fluorescence polarization, cherry-picked samples, set 2 (AID 504727). Details: species or system Salmonidae.
Experiment [6] has as its target T2, RNA-binding protein pos-1 (Caenorhabditis elegans, UniProt G5EF15).
T2 sequence (G5EF15 whole entry): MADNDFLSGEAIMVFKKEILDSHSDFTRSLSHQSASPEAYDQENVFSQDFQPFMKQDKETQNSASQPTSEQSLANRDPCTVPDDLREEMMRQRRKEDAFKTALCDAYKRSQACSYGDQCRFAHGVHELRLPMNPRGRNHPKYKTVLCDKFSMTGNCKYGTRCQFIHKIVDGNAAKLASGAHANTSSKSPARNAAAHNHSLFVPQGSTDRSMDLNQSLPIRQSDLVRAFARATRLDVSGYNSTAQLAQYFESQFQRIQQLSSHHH
In words: inhibitors of POS-1/mex-3 RNA binding, dose response, biochemical, fluorescence polarization (AID 1964).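 Also: purified POS-1 fused to maltose binding protein made in E. coli; potency of compounds blocking POS-1 binding to fluorescent RNA.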 A general note: Polarisation of emitted light reports the rotation of a fluorescent probe.

Experiment [7] deals with T3, Zinc finger protein mex-5 (Caenorhabditis elegans, UniProt Q9XUB2).
T3 sequence (Q9XUB2 whole entry): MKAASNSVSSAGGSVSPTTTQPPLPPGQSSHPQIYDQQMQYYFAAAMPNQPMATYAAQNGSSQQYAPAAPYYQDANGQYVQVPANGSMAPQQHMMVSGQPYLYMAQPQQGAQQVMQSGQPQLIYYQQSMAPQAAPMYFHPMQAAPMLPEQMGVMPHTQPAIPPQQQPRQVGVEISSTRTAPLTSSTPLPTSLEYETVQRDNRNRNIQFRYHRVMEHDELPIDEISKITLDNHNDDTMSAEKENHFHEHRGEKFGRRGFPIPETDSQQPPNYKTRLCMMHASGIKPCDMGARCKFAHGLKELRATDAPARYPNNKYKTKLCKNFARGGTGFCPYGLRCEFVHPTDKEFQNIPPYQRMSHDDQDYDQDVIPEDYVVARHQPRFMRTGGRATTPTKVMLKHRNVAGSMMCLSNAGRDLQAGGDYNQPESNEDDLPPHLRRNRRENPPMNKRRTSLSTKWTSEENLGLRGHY
The experiment can be described thus: MEX-5/TCR-2 RNA interaction inhibitors, dose response, biochemical, C. elegans, fluorescence polarization (AID 1960).

Experiment [8] deals with Melanin-concentrating hormone receptor 1 (Homo sapiens, UniProt Q99705). In words: Fluorescence-based counterscreen for antagonists of the G-protein coupled receptor 7 (GPR7): cell-based high throughput dose response assay to identify antagonists of the melanin-concentrating hormone receptor 1 (MCHR1). The class given is functional.
Melanin-concentrating hormone receptor 1, sequence (Q99705 whole entry): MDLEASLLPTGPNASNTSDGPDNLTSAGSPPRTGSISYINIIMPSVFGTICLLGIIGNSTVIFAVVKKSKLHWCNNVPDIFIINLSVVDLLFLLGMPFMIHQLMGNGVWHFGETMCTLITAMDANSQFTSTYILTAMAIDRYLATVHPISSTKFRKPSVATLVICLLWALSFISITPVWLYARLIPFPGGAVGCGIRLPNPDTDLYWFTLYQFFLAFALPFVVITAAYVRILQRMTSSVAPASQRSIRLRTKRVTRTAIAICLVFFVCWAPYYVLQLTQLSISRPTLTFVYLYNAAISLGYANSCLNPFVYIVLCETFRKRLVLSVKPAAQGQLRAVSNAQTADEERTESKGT
Experiment [9] addresses Neurotensin receptor type 1 (Homo sapiens, UniProt P30989). The class given is functional.
Experiment [10] deals with Dual specificity protein phosphatase 3 (Homo sapiens, UniProt P51452). In words: VHR1 inhibitor Ki determination, SAR follow-up, biochemical, colorimetric (AID 2004).
Dual specificity protein phosphatase 3, sequence (P51452 whole entry): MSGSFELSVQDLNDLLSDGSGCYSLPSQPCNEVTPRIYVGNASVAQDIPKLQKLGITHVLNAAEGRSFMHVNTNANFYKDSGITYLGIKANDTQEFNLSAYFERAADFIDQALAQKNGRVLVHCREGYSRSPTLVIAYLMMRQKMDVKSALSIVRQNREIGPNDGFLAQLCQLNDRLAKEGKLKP
Experiment [11] deals with Acyl-homoserine lactone acylase PvdQ (Pseudomonas aeruginosa (strain LESB58), UniProt Q9I194). The experiment can be described thus: P. aeruginosa PvdQ acylase inhibitors, dose response, biochemical, fluorescence, plate reader and imaging, cherry-picks (AID 493231).
Acyl-homoserine lactone acylase PvdQ, sequence (Q9I194 24-193 limits assumed): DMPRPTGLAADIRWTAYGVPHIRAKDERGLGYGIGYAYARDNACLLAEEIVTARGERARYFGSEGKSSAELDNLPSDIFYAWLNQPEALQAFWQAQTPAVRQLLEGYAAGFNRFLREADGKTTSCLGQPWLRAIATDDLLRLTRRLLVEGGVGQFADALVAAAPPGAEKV
Acyl-homoserine lactone acylase PvdQ, sequence (Q9I194 217-762 limits assumed): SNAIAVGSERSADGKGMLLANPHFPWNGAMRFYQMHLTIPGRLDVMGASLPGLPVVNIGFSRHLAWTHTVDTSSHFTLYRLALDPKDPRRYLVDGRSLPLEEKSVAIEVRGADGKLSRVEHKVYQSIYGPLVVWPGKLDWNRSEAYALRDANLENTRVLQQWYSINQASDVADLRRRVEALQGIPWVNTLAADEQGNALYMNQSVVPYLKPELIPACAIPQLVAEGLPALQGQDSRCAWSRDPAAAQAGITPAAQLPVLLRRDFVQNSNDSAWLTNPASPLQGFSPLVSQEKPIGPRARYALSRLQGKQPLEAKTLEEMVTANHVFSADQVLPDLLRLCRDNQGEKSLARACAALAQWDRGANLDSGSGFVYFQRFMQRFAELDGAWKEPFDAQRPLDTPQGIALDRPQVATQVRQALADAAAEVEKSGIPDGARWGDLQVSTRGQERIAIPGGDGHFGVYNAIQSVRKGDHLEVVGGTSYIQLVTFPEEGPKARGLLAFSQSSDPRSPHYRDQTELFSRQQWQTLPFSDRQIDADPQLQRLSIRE
Experiment [12] deals with Vero. The experiment can be described thus: cytotoxicity of synthesized analogs in Vero cells, SAR follow-up, cytotoxicity control for West Nile virus antiviral project, cell-based, set II (AID 2402). Conditions: Chlorocebus sabaeus. The class given is functional.
For experiment [13], the system named is Vero. In words: cytotoxicity of synthesized analogs in Vero 76, SAR follow-up, cytotoxicity control for West Nile virus antiviral project, Vero 76 cells (AID 2414). The class given is functional. The conditions noted are these: Chlorocebus sabaeus.
The nature of experiment [14]: A Cell Based Assay for the Identification of Probe candidate Compounds with Anti- Venezuelan Equine Encephalitis virus. [Related pubchem assays: 2409, 2419, 1621, 2238, 2405, 2024, 2065, 2402, 2414, 1635, 1650, 2244 ]. In kind it is functional.
For experiment [15], the system named is Vero. In words: Vero E6 cell cytotoxicity, SAR follow-up, cytotoxicity control for West Nile virus antiviral project, synthesized analogs (AID 2244). The class given is functional. Conditions: Chlorocebus sabaeus.
Experiment [16] can be described thus: cytotoxicity in HEK-293T cells, dose response, cytotoxicity control for BCR NF-kB inhibitor project, luminescence, B-cell screen hits (AID 489021).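 Also: HEK-293T cells carrying an NF-kB luciferase reporter; cells exposed to compound for about 14 hours before viability readout.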 The class given is functional, cell-based.
Experiment [17] deals with T4, Sentrin-specific protease 1 (Homo sapiens, UniProt Q9P0U3).
T4 sequence (Q9P0U3 whole entry): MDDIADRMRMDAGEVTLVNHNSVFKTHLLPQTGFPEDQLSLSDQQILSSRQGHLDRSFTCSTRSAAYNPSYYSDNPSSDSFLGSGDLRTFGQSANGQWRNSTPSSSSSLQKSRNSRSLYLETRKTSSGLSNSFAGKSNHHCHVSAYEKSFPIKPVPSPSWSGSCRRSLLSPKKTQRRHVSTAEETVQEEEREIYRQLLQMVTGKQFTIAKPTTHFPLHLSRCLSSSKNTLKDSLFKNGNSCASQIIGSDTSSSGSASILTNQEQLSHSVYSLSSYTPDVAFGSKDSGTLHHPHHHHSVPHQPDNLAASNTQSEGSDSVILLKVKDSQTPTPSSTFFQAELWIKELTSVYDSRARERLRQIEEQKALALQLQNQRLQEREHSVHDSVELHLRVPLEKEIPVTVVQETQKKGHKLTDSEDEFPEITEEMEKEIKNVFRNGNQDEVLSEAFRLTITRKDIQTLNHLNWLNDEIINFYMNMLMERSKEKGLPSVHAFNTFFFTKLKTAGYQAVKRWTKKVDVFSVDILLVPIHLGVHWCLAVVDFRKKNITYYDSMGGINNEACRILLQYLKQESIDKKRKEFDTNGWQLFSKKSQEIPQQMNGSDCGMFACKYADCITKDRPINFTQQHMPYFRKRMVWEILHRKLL
In words: Dose response confirmation of small molecule inhibitors of the catalytic domain of the SUMO protease, SENP1 in a FRET assay. Conditions: read-out: IC50_Mean. The class given is functional.

Experiment [18] concerns the target T4, Sentrin-specific protease 1. The experiment can be described thus: potency of human SENP1 inhibitors, dose response, biochemical, kinetic FRET (AID 651697). The class given is functional. The conditions noted are these: read-out: IC50_Mean.
The target of experiment [19] is T5, DNA repair protein RAD52 homolog (Homo sapiens, UniProt P43351).
T5 sequence (P43351 whole entry): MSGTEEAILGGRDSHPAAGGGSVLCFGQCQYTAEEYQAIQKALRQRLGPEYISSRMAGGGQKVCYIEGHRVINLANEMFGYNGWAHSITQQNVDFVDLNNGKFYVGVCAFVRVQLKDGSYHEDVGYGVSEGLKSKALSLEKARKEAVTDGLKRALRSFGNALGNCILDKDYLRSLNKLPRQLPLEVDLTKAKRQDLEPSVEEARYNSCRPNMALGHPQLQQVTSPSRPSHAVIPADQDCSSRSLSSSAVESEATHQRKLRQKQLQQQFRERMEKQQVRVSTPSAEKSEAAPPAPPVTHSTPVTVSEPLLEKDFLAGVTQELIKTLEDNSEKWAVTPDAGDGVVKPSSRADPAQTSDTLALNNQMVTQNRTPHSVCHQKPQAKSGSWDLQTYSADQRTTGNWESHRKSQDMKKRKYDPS
The class given is functional, biochemical.

Experiment [20] is described as follows: HeLa cell cytotoxicity, dose response, cytotoxicity control for MgcRacGAP inhibitor project (AID 624300). In kind it is functional.
The target in experiment [21] is T6, Rac GTPase-activating protein 1 (Homo sapiens, UniProt Q9H0H5).
T6 sequence (Q9H0H5 whole entry): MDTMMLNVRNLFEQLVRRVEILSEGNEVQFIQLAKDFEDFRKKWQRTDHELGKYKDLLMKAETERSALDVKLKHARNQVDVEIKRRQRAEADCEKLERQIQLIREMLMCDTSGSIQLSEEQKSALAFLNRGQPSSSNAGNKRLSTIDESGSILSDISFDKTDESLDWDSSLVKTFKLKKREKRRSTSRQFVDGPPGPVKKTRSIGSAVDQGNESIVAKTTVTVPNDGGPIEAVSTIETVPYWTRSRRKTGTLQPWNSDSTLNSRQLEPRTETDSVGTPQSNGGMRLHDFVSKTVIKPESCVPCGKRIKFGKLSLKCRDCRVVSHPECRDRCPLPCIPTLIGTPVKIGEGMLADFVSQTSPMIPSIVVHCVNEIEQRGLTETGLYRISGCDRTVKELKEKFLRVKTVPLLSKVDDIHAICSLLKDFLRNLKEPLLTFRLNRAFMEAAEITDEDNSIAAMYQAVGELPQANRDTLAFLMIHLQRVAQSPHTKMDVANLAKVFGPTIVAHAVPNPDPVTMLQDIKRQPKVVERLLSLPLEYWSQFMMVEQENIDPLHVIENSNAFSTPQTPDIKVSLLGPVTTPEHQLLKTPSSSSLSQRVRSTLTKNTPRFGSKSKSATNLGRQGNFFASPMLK
In words: MgcRacGAP GTPase-activating activity inhibitors, confirmation, biochemical, ADP Hunter fluorescence, primary and confirmatory (AID 624330). The class given is functional.

The nature of experiment [22]: inhibition of K1F phage lysis, E. coli UTI89, bacterial capsule biogenesis inhibitors, alamar blue (AID 488966). In kind it is functional.
For a further experiment, the target named is Cytochrome P450 2C9 (Homo sapiens, UniProt P11712). The conditions noted are these: Potency.
Cytochrome P450 2C9, sequence (P11712 whole entry): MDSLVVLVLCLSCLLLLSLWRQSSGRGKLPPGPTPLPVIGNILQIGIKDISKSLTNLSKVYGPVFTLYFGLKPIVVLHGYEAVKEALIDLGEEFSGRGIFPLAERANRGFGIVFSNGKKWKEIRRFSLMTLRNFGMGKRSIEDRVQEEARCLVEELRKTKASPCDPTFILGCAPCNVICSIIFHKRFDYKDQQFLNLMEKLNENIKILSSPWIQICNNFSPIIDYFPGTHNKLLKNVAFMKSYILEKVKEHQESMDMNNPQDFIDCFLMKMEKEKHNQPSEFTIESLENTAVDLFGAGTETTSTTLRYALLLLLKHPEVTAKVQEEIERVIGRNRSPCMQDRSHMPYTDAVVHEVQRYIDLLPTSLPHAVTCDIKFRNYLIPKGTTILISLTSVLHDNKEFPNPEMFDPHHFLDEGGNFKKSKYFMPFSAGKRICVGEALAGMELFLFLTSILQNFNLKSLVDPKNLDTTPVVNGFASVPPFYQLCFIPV
The next experiment has as its target Cytochrome P450 3A4 (Homo sapiens, UniProt P08684). The conditions noted are these: Potency.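 Also: confirmatory qHTS run detecting inhibitors and substrates of CYP3A4.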

Neurotensin receptor type 1, sequence (P30989 whole entry): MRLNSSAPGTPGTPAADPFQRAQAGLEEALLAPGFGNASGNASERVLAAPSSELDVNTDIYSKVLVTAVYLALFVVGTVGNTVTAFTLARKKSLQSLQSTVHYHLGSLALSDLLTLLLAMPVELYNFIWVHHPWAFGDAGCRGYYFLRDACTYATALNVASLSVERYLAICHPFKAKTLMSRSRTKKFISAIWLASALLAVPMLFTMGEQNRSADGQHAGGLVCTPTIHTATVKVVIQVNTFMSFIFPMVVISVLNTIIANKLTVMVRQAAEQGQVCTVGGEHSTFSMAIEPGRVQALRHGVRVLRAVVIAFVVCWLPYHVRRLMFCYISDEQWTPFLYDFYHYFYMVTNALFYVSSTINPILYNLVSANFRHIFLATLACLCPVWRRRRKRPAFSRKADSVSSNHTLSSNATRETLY
Cytochrome P450 3A4, sequence (P08684 whole entry): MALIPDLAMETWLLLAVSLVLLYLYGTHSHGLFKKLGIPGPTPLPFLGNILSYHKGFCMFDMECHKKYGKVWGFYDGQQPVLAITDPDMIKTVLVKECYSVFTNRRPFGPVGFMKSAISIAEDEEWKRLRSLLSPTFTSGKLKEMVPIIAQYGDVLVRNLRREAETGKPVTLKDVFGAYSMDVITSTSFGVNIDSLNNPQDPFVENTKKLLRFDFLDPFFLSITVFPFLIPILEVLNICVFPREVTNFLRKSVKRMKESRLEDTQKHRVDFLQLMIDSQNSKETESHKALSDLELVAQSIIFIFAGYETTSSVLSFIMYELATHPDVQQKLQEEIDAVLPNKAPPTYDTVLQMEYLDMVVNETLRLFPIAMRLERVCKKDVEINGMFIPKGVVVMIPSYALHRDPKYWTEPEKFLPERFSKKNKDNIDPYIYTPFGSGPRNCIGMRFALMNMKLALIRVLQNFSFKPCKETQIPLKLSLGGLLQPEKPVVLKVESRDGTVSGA

With `COc1ccc(-c2csc3ncnc(N4CCN(c5ccccc5Cl)CC4)c23)cc1`, the EC50 (commonly the concentration giving half of the maximal effect) at Streptokinase A was 3.7 µM (active); in experiment [1], 82.6 µM (active); in the experiment on Streptococcus [2] it was > 500 µM (not active); with Streptococcus [3] it was > 150 µM (not active).

Turning to `COc1cccc(OCCCn2cc(/C=C3/C(=N)N4C=C(C)SC4=NC3=O)c3ccccc32)c1`, the EC50 in [4] is 1.34 µM (active); in experiment [5], > 60 µM (not active); in experiment [6] it was 108 µM (active); in experiment [7] it was 109 µM (active). In addition, the AC50 – broadly, the concentration giving half of the maximal activity seen – with Salmon testes DNA was 65.9 µM (active).

In the case of `Cc1ccc(C2C3=C(NCCN=C3c3ccccc3)C(=O)N2c2ccccc2)cc1` (stereo unspecified), the IC50 in [8] is listed as > 14.6 µM (not active).

With `O=C(COC(=O)/C=C/C(=O)OCC(=O)NC12CC3CC(CC(C3)C1)C2)NC12CC3CC(CC(C3)C1)C2`, the EC50 in experiment [9] was > 40 µM (inactive).

In the case of `CC(C)C1SC(N/N=C/c2ccc(O)cc2)=NC1=O` (stereo unspecified), the Ki (usually the equilibrium dissociation constant of an inhibitor or competing ligand from its target) in [10] is 36.1 µM (inactive).

`O=C(CSCc1ccco1)N1CCc2ccccc21`: in [11], the half-maximal activity concentration (AC50) is 1.9 µM (active).

Regarding `COc1cccc(NC(=O)CSc2nc3ccccc3c(=O)n2-c2ccc(F)cc2)c1`, the CC50 (as a rule, the concentration giving 50% cytotoxicity) in the experiment on Vero [12] was > 100 µM (active); in the experiment with Vero [13] it was > 66.6 µM (active); in the experiment with Vero [15], > 40 µM (active). In addition, in experiment [14], the IC50 is 64.2 µM (active).

For the molecule `CCSc1ncc(Cl)c(C(=O)Nc2sc3c(c2C(=O)NCc2cccnc2)CCCC3)n1`, the IC50 in experiment [16] is > 80 µM (inactive); in [17], 5.97 µM (active); in experiment [18] it was 19.1 µM (active).

For `O=C1c2cccc(NCCNCCO)c2C(=O)c2cccc(NCCNCCO)c21`, the AC50 in experiment [19] was < 0.15 µM (active). Besides, the CC50 in [20] was 23.1 µM (active). The IC50 is 41.3 µM (active) in experiment [21] and > 300 µM (active) in experiment [22].

For `O=c1c(O)c(-c2ccc(O)cc2)oc2ccc(O)cc12`, the AC50 on Cytochrome P450 2C9 is 10 µM (inconclusive); on Cytochrome P450 3A4, 12.6 µM (inconclusive).
